# Results: ChEMBL document CHEMBL3525908, “Chronic doxorubicin cardiotoxicity modulates cardiac cytochrome P450-mediated arachidonic acid metabolism in rats” (Drug Metab Dispos, 2012)
# Experiments:
# Parameters in all cases: dose 15 mg/kg, route intraperitoneal
# Rattus norvegicus [1] = test: Toxicity in Sprague-Dawley rat assessed as CYP4A1 gene expression in kidney administered as cumulative dose of 15 mg/kg, ip divided into 6 injections for 2 weeks followed by compound washout period of 14 days by RT-PCR analysis relative to control; type: organism-based; conditions: in vivo, 336 h
# Rattus norvegicus [2] = test: Cardiotoxicity in Sprague-Dawley rat assessed as increase in p53 gene expression level administered as cumulative dose of 15 mg/kg, ip divided into 6 injections for 2 weeks followed by compound washout period of 14 days by RT-PCR analysis relative to control; type: toxicity, organism-based; conditions: in vivo, 336 h
# Rattus norvegicus [3] = test: Cardiotoxicity in Sprague-Dawley rat assessed as increase in CYP2J3 gene expression level administered as cumulative dose of 15 mg/kg, ip divided into 6 injections for 2 weeks followed by compound washout period of 14 days by RT-PCR analysis relative to control; type: toxicity, organism-based; conditions: in vivo, 336 h
# Rattus norvegicus [4] = test: Toxicity in Sprague-Dawley rat assessed as CYP2J3 gene expression in liver administered as cumulative dose of 15 mg/kg, ip divided into 6 injections for 2 weeks followed by compound washout period of 14 days by RT-PCR analysis relative to control; type: organism-based; conditions: in vivo, 336 h
# Rattus norvegicus [5] = test: Cardiotoxicity in Sprague-Dawley rat assessed as increase in Bax gene expression level administered as cumulative dose of 15 mg/kg, ip divided into 6 injections for 2 weeks followed by compound washout period of 14 days by RT-PCR analysis relative to control; type: toxicity, organism-based; conditions: in vivo, 336 h
# CYP4F5 = test: Toxicity in Sprague-Dawley rat assessed as induction of CYP4F5 gene expression in kidney administered as cumulative dose of 15 mg/kg, ip divided into 6 injections for 2 weeks followed by compound washout period of 14 days by RT-PCR analysis relative to control; type: organism-based
# Rattus norvegicus [6] = test: Induction of CYP450-mediated arachidonic acid metabolism in Sprague-Dawley rat heart microsomes assessed as 14,15-EET formation administered as cumulative dose of 15 mg/kg, ip divided into 6 injections for 2 weeks followed by compound washout period of 14 days by LC-ESI-MS analysis relative to control; type: ADME, organism-based; conditions: 336 h
# Rattus norvegicus [7] = test: Cardiotoxicity in Sprague-Dawley rat assessed as increase in CYP1A1 gene expression level administered as cumulative dose of 15 mg/kg, ip divided into 6 injections for 2 weeks followed by compound washout period of 14 days by RT-PCR analysis relative to control; type: toxicity, organism-based; conditions: in vivo, 336 h
# Rattus norvegicus [8] = test: Induction of CYP450-mediated arachidonic acid metabolism in Sprague-Dawley rat heart microsomes assessed as 5,6-EET formation administered as cumulative dose of 15 mg/kg, ip divided into 6 injections for 2 weeks followed by compound washout period of 14 days by LC-ESI-MS analysis relative to control; type: ADME, organism-based; conditions: 336 h
# Rattus norvegicus [9] = test: Toxicity in Sprague-Dawley rat assessed as CYP4F4 gene expression in kidney administered as cumulative dose of 15 mg/kg, ip divided into 6 injections for 2 weeks followed by compound washout period of 14 days by RT-PCR analysis relative to control; type: organism-based; conditions: in vivo, 336 h
# Rattus norvegicus [10] = test: Toxicity in Sprague-Dawley rat assessed as CYP4F4 gene expression in liver administered as cumulative dose of 15 mg/kg, ip divided into 6 injections for 2 weeks followed by compound washout period of 14 days by RT-PCR analysis relative to control; type: organism-based; conditions: in vivo, 336 h
# Rattus norvegicus [11] = test: Toxicity in Sprague-Dawley rat assessed as inhibition of CYP2B1 gene expression in liver administered as cumulative dose of 15 mg/kg, ip divided into 6 injections for 2 weeks followed by compound washout period of 14 days by RT-PCR analysis relative to control; type: organism-based; conditions: in vivo, 336 h
# Rattus norvegicus [12] = test: Toxicity in Sprague-Dawley rat assessed as CYP2B1 gene expression in kidney administered as cumulative dose of 15 mg/kg, ip divided into 6 injections for 2 weeks followed by compound washout period of 14 days by RT-PCR analysis relative to control; type: organism-based; conditions: in vivo, 336 h
compound,measurement,setting,value
COc1cccc2c1C(=O)c1c(O)c3c(c(O)c1C2=O)C[C@@](O)(C(=O)CO)C[C@@H]3O[C@H]1C[C@H](N)[C@H](O)[C@H](C)O1 [DOXORUBICIN],Activity,Rattus norvegicus [1],Non-toxic
same,Ratio,Rattus norvegicus [2],1.7
same,Activity,Rattus norvegicus [3],Non-toxic
same,Activity,Rattus norvegicus [4],Non-toxic
same,Ratio,Rattus norvegicus [5],1.9
same,fold induction at 336 h,CYP4F5,1.7
same,Activity,Rattus norvegicus [6],Active
same,Activity,Rattus norvegicus [7],Non-toxic
same,Activity,Rattus norvegicus [8],Active
same,Activity,Rattus norvegicus [9],Non-toxic
same,Activity,Rattus norvegicus [10],Non-toxic
same,Ratio,Rattus norvegicus [11],0.5
same,Activity,Rattus norvegicus [12],Non-toxic
